The values that follow come from publication PMC3252702 (ChemMedChem, 2010).

Structures are written as SMILES.

One experiment addresses HsCDK2 (Homo sapiens, UniProt P24941). Briefly: biochemical.
The target in another experiment is EtCRK2 (Eimeria tenella, UniProt Q6R8F0). The experiment can be described thus: TR-FRET. It is filed as biochemical. On the technique in general: TR-FRET usually uses a lanthanide donor and a delayed reading to cut background.
Experiment [1] concerns E. tenella schizont development. The experiment can be described thus: Schizont maturation assay. It is filed as cell-based, Eimeria tenella. The settings on record: n=2.

The term IC50 denotes the concentration that gives 50% inhibition. Read a low IC50 as greater potency. What is called Ki is the dissociation constant of the complex between target and ligand, obtained from inhibition or displacement. Lower therefore signals higher affinity.

Chain of EtCRK2 (Q6R8F0 1-296): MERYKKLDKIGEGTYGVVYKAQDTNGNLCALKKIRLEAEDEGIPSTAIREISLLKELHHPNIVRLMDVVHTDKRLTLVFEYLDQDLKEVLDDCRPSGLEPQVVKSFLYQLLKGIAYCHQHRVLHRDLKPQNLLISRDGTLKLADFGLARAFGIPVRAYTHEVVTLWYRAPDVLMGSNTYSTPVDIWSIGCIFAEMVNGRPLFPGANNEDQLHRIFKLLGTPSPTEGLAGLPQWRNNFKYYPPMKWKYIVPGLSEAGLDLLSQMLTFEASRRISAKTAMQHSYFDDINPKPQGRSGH

`O=C(O)CN1C(=O)/C(=C2\SC(=S)NC2=O)c2ccccc21` [BES062021, 2-[(3Z)-2-oxo-3-(4-oxo-2-thioxo-thiazolidin-5-ylidene)indolin-1-yl]acetic acid]: the half-inhibitory concentration (IC50) at HsCDK2 is 26 ± 19 µM; against EtCRK2, 23 ± 14 µM. Further, the Ki was 17 ± 8 µM at HsCDK2 and 16 ± 9 µM on EtCRK2.
Regarding `Cc1c(CCC(=O)O)c(=O)n2c([nH]c3ccccc32)c1C#N` [BES241415, 3-(4-cyano-3-methyl-1-oxo-5H-pyrido[1,2-a]benzimidazol-2-yl)propanoic acid], at EtCRK2, half-maximal inhibition (IC50) required 61 ± 27 µM and the affinity, expressed as Ki, was 83 ± 29 µM.
For `CN1CC[C@H](c2c(O)cc(O)c3c(=O)cc(-c4ccccc4Cl)oc23)[C@H](O)C1` [Flavopiridol, 2-(2-Chlorophenyl)-5,7-dihydroxy-8-[(3S,4R)-3-hydroxy-1-methyl-4-piperidinyl]-4H-1-benzopyran-4-one], the “inhibition of E. tenella schizont development” value is given as “fully inhibited” in experiment [1] (150 nM), “fully inhibited” in experiment [1] (300 nM) and “no inhibitory effects” in experiment [1] (concentrations below 80 nM).
On HsCDK2, `CCN(CC)S(=O)(=O)c1ccc2c3c(cccc13)C(=O)N2` [BES143551, N,N-diethyl-2-oxo-1,2-dihydrobenzo[cd]indole-6-sulfonamide] showed an IC50 of 12 ± 7 µM and a Ki of 2 ± 1 µM. Also, at EtCRK2, the IC50 is 36 ± 8 µM and the Ki came to 6 ± 2 µM.
In the case of `O=C1NC(=Nc2nc3cc([N+](=O)[O-])ccc3[nH]2)NC1=O` [BES252034, 2-[(5-nitro-1H-benzimidazol-2-yl)imino]imidazolidine-4,5-dione], the IC50 against HsCDK2 came out at 35 ± 3 µM; against EtCRK2 it was 15 ± 3 µM. Moreover, the Ki at HsCDK2 and on EtCRK2 was 8 ± 2 µM throughout.
